Experimental findings from patent publication EP4799646A1, “COMPOSITION AND METHOD FOR INCREASING BIOAVAILABILITY OF ACTIVE INGREDIENT” (Everfront Biotech Inc., priority 2023, dated 2025) are described below.

The term IC50 denotes the midpoint of a concentration-inhibition curve.

In data set [1] the test system is pancreatic cancer cell lines Mia-PaCa2. Kind of data set: MTT assay, IC50 against pancreatic cancer cells (cytotoxicity study II). The data set is classed as cell-based. The conditions noted are these: Homo sapiens. How it is done:
The culture medium in each well of the cell culture plates was removed, and MTT reagent was added (to reach a final concentration of 0.5 mg/mL in each well). The plates were then placed in a 37°C, 5% CO2 incubator for 2 to 4 hours to form purple needle-like formazan crystals. Subsequently, the solution was aspirated, and 500 µL of dimethyl sulfoxide (DMSO) was added to each well. After shaking with a shaker for 5 to 10 minutes to completely dissolve the purple crystals, the absorbance at a wavelength of 570 or 595 nm was measured using an ELISA reader. The survival rate of the cells was calculated based on the absorbance, with the blank group as the baseline (the survival rate of the blank group was set to 100%). The data of the experimental group serum collected 2 hours after oral administration of the soft capsules are shown in FIG. 7; the data of the experimental group serum collected at 1, 4, 8, or 24 hours are shown in FIG. 8.
Cell cultures in this example were all conducted in an environment of 95% relative humidity, 5% CO2, and 37°C.
Pancreatic cancer cell lines Mia-PaCa2 were grouped and respectively cultured in 96-well cell culture plates for 24 hours using the following culture media: • 1. "Z-BP" Group: Mia-PaCa2 cell culture medium supplemented with Z-BP. • 2. […]
Background: Tetrazolium dyes change colour on reduction, which living cells bring about.

Data set [2] is described as follows: Appearance (phase separation) of compositions after preparation; solubility of BP in sesame oil. Type of data set: physicochemical. The settings on record: concluded from absence of phase separation in Compositions 1 to 4. The method, then: In a glass bottle, components were mixed with the dosage ratios shown in Table 1 to provide a mixture, and the mixture was rapidly stirred with a magnetic stirrer for 20 minutes to form a homogeneous liquid, thereby respectively preparing Compositions 1 to 4. After removing the magnetic stirrer, the glass bottle was tightly sealed and its appearance was observed and photographed, the results are shown in FIG. 1. Table 1: Volume Percentages of Composition in Compositions 1 to 4.

Converted amounts (≈) assume the structure as drawn. Read-outs that look alike come from different tables or passages of the source.

Consider `CCC/C=C1\OC(=O)C2=C1CCC=C2` [LG, Ligustilide], for which, in data set [1] (MIA PaCa-2, Mia-PaCa2 cells, 24 hours, MTT, oil groups: active mixed with oil in equal proportions, read-out: IC50), the IC50 amounted to 44.1 µg/mL (≈ 232 µM).

Turning to `CCCC=C1OC(=O)c2ccccc21` [BP, n-butylidenephthalide], the “solubility in sesame oil” value in data set [2] is “good solubility”.

For the compound `CCC/C=C1\OC(=O)c2ccccc21` [Z-BP, (Z)-n-butylidenephthalide], the IC50 in data set [1] (MIA PaCa-2, 24 h) came to 63.8 µg/mL (≈ 339 µM).
